Assay results published in publication PMC11067709 (Clinical and Translational Science, 2024).
Like-named read-outs stand apart in the source and are kept apart here. Each block holds one molecule with its values, some of them ahead of it.

Key:
[1] = cited from earlier work; for intra‐subject variability for the PK parameter (C max): NSAIDs, ref previously reported
[2] = test system: CYP2D6; details: CYP isoform 2D6; cited from earlier work
[3] = Pharmacokinetic interaction study, fexuprazan and celecoxib; type: in vivo, healthy Korean male subjects; details: 5 days; for Tmax: T max,ss; for Tmax / T max,ss: median [minimum–maximum]; for Vd/F: V ss/F
[4] = test system: CYP2C9; details: CYP isoform 2C9; cited from earlier work
[5] = clinical; details: male, human, in vivo, po, 15 mg, T max,ss, 7 days, Arm E, median [minimum–maximum]
[6] = Safety and tolerability, adverse events, Cohort 2; type: in vivo, healthy Korean male subjects
[7] = cited from earlier work
[8] = for AUCτ,ss / C max,ss / MR, metabolic ratio of fexuprazan (AUCτ,M14/AUCτ,fexuprazan) / V ss/F / t 1/2 / T max,ss: 5 days; for AUCτ,ss / C max,ss / MR, metabolic ratio of fexuprazan (AUCτ,M14/AUCτ,fexuprazan) / V ss/F / t 1/2: mean ± SD; for T max,ss: median [minimum–maximum]
[9] = test system: transporters; details: at the effective dose of 40 mg; cited from earlier work
[10] = for T max: median [minimum–maximum]
[11] = test system: uptake or efflux transporters; details: cited from earlier work
[12] = Safety and tolerability, adverse events, Cohort 1; type: in vivo, healthy Korean male subjects
[13] = Safety and tolerability, adverse events, Cohort 3; type: in vivo, healthy Korean male subjects
[14] = combination: fexuprazan 40 mg BID + naproxen 500 mg BID, Arm D
[15] = monotherapy: fexuprazan 40 mg BID, Arm D (Cohort 2)
[16] = combination: fexuprazan 40 mg BID + meloxicam 15 mg QD, 7 days, Arm F, mean ± SD
[17] = monotherapy: fexuprazan 40 mg BID, 5 days, Arm F (Cohort 3), mean ± SD
[18] = combination: fexuprazan 40 mg BID + celecoxib 200 mg BID, Arm B, mean ± SD
[19] = monotherapy: fexuprazan 40 mg BID, Arm B (Cohort 1), mean ± SD

Structure (SMILES): COc1ccc2cc([C@H](C)C(=O)O)ccc2c1 [Naproxen]
intra‐subject variability for the PK parameter (C max) [1]: 8.4%

AUC ([3]; male, human, plasma, po, 200 mg, AUCτ,ss, combination: celecoxib 200 mg BID + fexuprazan 40 mg BID, Arm A, mean ± SD): 8110 ± 2550 ng·h/mL
Cmax ([3]; male, human, plasma, po, 200 mg, C max,ss, monotherapy: celecoxib 200 mg BID, Arm A, mean ± SD): 1080 ± 315 ng/mL
Tmax ([3]; male, human, plasma, po, 200 mg, combination: celecoxib 200 mg BID + fexuprazan 40 mg BID, Arm A): 3 h
Tmax ([3]; male, human, plasma, po, 200 mg, monotherapy: celecoxib 200 mg BID, Arm A): 2.5 h
Vd/F ([3]; male, human, plasma, po, 200 mg, combination: celecoxib 200 mg BID + fexuprazan 40 mg BID, Arm A, mean ± SD): 358 ± 126 L
Vd/F ([3]; male, human, plasma, po, 200 mg, monotherapy: celecoxib 200 mg BID, Arm A, mean ± SD): 416 ± 235 L
half-life ([3]; male, human, plasma, po, 200 mg, t 1/2, combination: celecoxib 200 mg BID + fexuprazan 40 mg BID, Arm A, mean ± SD): 9.5 ± 3.3 h
half-life ([3]; male, human, plasma, po, 200 mg, t 1/2, monotherapy: celecoxib 200 mg BID, Arm A, mean ± SD): 9.4 ± 5 h
Structure (SMILES): Cc1ccc(-c2cc(C(F)(F)F)nn2-c2ccc(S(N)(=O)=O)cc2)cc1 [Celecoxib]
inhibitory effect of NSAIDs on the CYP isoform [2]: moderate inhibitory effects
intra‐subject variability for the PK parameter (C max) [1]: 31.8%
elimination half‐life ([1]; celecoxib): 12.4 h

Tmax ([5]; combination: meloxicam 15 mg QD + fexuprazan 40 mg BID): 4.5 h
Tmax ([5]; monotherapy: meloxicam 15 mg QD): 5 h
Structure (SMILES): Cc1cnc(NC(=O)C2=C(O)c3ccccc3S(=O)(=O)N2C)s1 [Meloxicam]
intra‐subject variability for the PK parameter (C max) [1]: 9.8%
inhibitory effect of NSAIDs on the CYP isoform [4]: relatively weak inhibitor

AUCτ,ss [8, 14]: 728.7 ± 463.2 ng·h/mL
C max,ss [8, 14]: 89.2 ± 52.5 ng/mL
MR, metabolic ratio of fexuprazan (AUCτ,M14/AUCτ,fexuprazan) [8, 14]: 2.03 ± 1.25
V ss/F [8, 14]: 808.9 ± 503.9 L
t 1/2 [8, 14]: 7.8 ± 1.1 h
T max,ss [8, 14]: 3.0 [1.5–4.0] h
increase in systemic exposure ([8]; fexuprazan co-administered with naproxen vs fexuprazan alone): approximately 20%
AUCτ,ss [8, 15]: 591.7 ± 271.7 ng·h/mL
C max,ss [8, 15]: 72.5 ± 37.0 ng/mL
MR, metabolic ratio of fexuprazan (AUCτ,M14/AUCτ,fexuprazan) [8, 15]: 2.65 ± 1.22
V ss/F [8, 15]: 1028.6 ± 506.2 L
t 1/2 [8, 15]: 8.6 ± 0.9 h
T max,ss [8, 15]: 2.5 [1.0–6.0] h
AUCτ,ss [10, 16]: 674.7 ± 379.2 ng·h/mL
C max,ss [10, 16]: 83.2 ± 46.2 ng/mL
V ss/F [10, 16]: 1427.7 ± 1984.4 L
t 1/2 [10, 16]: 8.6 ± 2.1 h
T max ([10]; combination: fexuprazan 40 mg BID + meloxicam 15 mg QD, 7 days, Arm F): 2.5 [1.5–4.0] h
AUCτ,ss [10, 17]: 728.3 ± 403.5 ng·h/mL
C max,ss [10, 17]: 82.8 ± 45.5 ng/mL
MR, metabolic ratio of fexuprazan (AUCτ,M14/AUCτ,fexuprazan) [10, 17]: 2.50 ± 1.64
V ss/F [10, 17]: 1161.1 ± 1231.1 L
t 1/2 [10, 17]: 9.6 ± 2.2 h
T max ([10]; monotherapy: fexuprazan 40 mg BID, 5 days, Arm F (Cohort 3)): 2.5 [1.5–8.0] h
AUCτ,ss [3, 18]: 570.2 ± 255.7 ng·h/mL
C max,ss [3, 18]: 71.3 ± 32.4 ng/mL
MR, metabolic ratio of fexuprazan (AUCτ,M14/AUCτ,fexuprazan) [3, 18]: 3.82 ± 2.72
V ss/F [3, 18]: 1136.7 ± 730.7 L
t 1/2 [3, 18]: 8.5 ± 0.8 h
T max,ss ([3]; combination: fexuprazan 40 mg BID + celecoxib 200 mg BID, Arm B): 2.5 [1.0–6.0] h
AUCτ,ss [3, 19]: 555.3 ± 239.6 ng·h/mL
C max,ss [3, 19]: 65.6 ± 30.1 ng/mL
MR, metabolic ratio of fexuprazan (AUCτ,M14/AUCτ,fexuprazan) [3, 19]: 3.56 ± 2.50
V ss/F [3, 19]: 1203.2 ± 788.6 L
t 1/2 [3, 19]: 8.7 ± 1.2 h
T max,ss ([3]; monotherapy: fexuprazan 40 mg BID, Arm B (Cohort 1)): 3.0 [1.0–6.0] h
Structure (SMILES): CNCc1cn(S(=O)(=O)c2cccc(F)c2)c(-c2ccc(F)cc2F)c1OC [Fexuprazan]
Summary of AEs: number of events [6]: six
percentage of subjects with AEs [6]: 33.3%
multiple dose with established safety and tolerability ([7]; multiple doses for 7 days): up to 160 mg
single dose with established safety and tolerability ([7]; single dose): up to 320 mg
elimination half‐life ([1]; fexuprazan): 7.5 to 9.5 h
potential for inhibitory effects on transporters [9]: low potential
substrate for uptake or efflux transporters [11]: not a substrate
percentage of subjects with AEs [12]: 33.3%
Summary of AEs: number of events [13]: eight
percentage of subjects with AEs [13]: 23.5%
